Data on 7 compounds can be found in ChEMBL document CHEMBL1149667, “Synthesis of ferulic ester dimers, functionalisation and biological evaluation as potential antiatherogenic and antiplasmodial agents” (Bioorg Med Chem, 2007).

Calls of active or inactive are those of the source. The rule behind the calls is not given here.

Experiment [1] relates to P388. In words: Cytotoxicity against mouse P388 cells after 72 hrs. The experiment is classed as functional, cell-based. The note with it: P388, 72 h.
Experiment [2] has as its system Plasmodium falciparum. Briefly: Antiplasmodial activity against Plasmodium falciparum FCM29 by [3H]hypoxanthine uptake. The experiment is classed as functional, organism-based.
For experiment [3], the system named is Plasmodium falciparum. In words: Antiplasmodial activity against Plasmodium falciparum FCM29 at 10 ug/mL as [3H]hypoxanthine uptake. The experiment is classed as functional.
For experiment [4], the system named is P388. Briefly: Cytotoxicity against mouse P388 cells at 10 ug/mL after 72 hrs. The following applies: P388, 72 h. Format: functional.
In experiment [5] the test system is HMEC-1. Briefly: Effect on HMEC1 cells-mediated LDL oxidation at 10 uM after 6 hrs by TBARS assay. Format: functional, Homo sapiens.
The nature of experiment [6]: (§1) Cytoprotective effect on HMEC1 cells assessed as cell viability at 10 uM after 24 hrs by MTT assay. The experiment is classed as functional. The following applies: Homo sapiens, HMEC-1, 24 h, read-out: Activity. (In general: Formazan colour is commonly taken as a measure of viable cells.)
Experiment [7] in a line: (§2) Cytoprotective effect on HMEC1 cells assessed as cell viability by MTT assay. Format: functional, Homo sapiens, HMEC-1.
The test system of experiment [8] is HMEC-1. The experiment is described as §2. The experiment is classed as functional. The following applies: Homo sapiens.
In experiment [9] the test system is HMEC-1. The description is as §1. Format: functional. The following applies: Homo sapiens.
Experiment [10] concerns HMEC-1. In words: Effect on HMEC1 cells-mediated LDL oxidation at 100 uM after 6 hrs by TBARS assay. The experiment is classed as functional, cell-based. The following applies: Homo sapiens.

As usually defined, the IC50 is the concentration that gives 50% inhibition. Low values mean higher potency, high ones lower potency. For `CC[C@@]1(O)C(=O)OCc2c1cc1n(c2=O)Cc2cc3ccccc3nc2-1` [CAMPTOTHECIN], in the experiment with P388 [1], the IC50 was determined as 32.1 nM.
The inhibition is the percentage by which the read-out fell short of the control. Turning to `COC(=O)/C=C/c1cc(OC)c2c(c1)C(COC(=O)c1cc(O)c(O)c(O)c1)C(c1ccc(O)c(OC)c1)O2` (stereo not drawn), it took 798 nM to reach half-maximal inhibition with Plasmodium falciparum [2] (IC50). In addition, the inhibition at 10 µg/mL with Plasmodium falciparum [3] worked out at 93.7%; in the experiment with P388 [4] it was 16.4%. The Activity in the experiment on HMEC-1 [5] stood at 2.2%; in [7] it was 59.9%. In addition, in experiment [6], the viability at 10 µM worked out at 40%.
As to `COC(=O)/C=C/c1ccc(O/C(=C\c2ccc(O)c(OC)c2)C(=O)OC)c(OC)c1`, the inhibition at 10 µg/mL with Plasmodium falciparum [3] was found to be 23.8%; in the experiment on P388 [4], 0%. Further, the outcome in the experiment with HMEC-1 [5] (Homo sapiens) and with HMEC-1 [8] was Active. In experiment [6], the viability at 10 µM amounted to 40%.
`COC(=O)/C=C/c1cc(OC)c2c(c1)C(C(=O)OC)C(c1ccc(O)c(OC)c1)O2` (stereo not drawn): the inhibition at 10 µg/mL in the experiment on Plasmodium falciparum [3] worked out at 0%; in the experiment with P388 [4], 85.2%. Besides, the result in the experiment on HMEC-1 [5] (Homo sapiens) and in the experiment with HMEC-1 [8] was Active. In addition, the viability at 10 µM in experiment [6] was 40%. This compound showed an IC50 in the experiment with P388 [1] of 772 nM.
With VITAMIN E, the Activity with HMEC-1 [5] (Homo sapiens) turned out to be 55%; in the experiment with HMEC-1 [9] it was 40%; in the experiment with HMEC-1 [8] it was 29%.
For the compound `CC(C)(Sc1cc(C(C)(C)C)c(O)c(C(C)(C)C)c1)Sc1cc(C(C)(C)C)c(O)c(C(C)(C)C)c1` [PROBUCOL], the Activity in the experiment on HMEC-1 [5] is 10%; in experiment [7] it was 92%. In experiment [6], the viability at 10 µM was 55%.
For `COC(=O)/C=C/c1cc(OC)c2c(c1)C(CO)C(c1ccc(O)c(OC)c1)O2` (stereo not drawn), the inhibition at 10 µg/mL with Plasmodium falciparum [3] came to 25.7%; in the experiment on P388 [4], 8.63%. In [6], the viability at 10 µM came to 40%. In addition, the outcome in the experiment on HMEC-1 [10] was Active.
